One series has as its target HasA (Pseudomonas aeruginosa, UniProt G3XD33). In words: Kd determination by fluorescence quenching of apo-HasAp. As to conditions: read-out: HasA Kd; apo-HasAp 1 μM, 20 mM sodium phosphate pH 7.4, 25 °C, one-site binding fit. The procedure:
Wild-type, full-length HasAp was prepared from freshly transformed Escherichia coli BL21(DE3) competent cells as previously described in 4 L of M9 media. Cell pellets were resuspended and lysed with an LM-20 microfluidizer at 18,000 psi. Lysate was clarified by centrifugation and applied to a Q-Sepharose column. HasAp was eluted over a gradient from 20 to 600 mM NaCl in 20 mM Tris-HCl (pH 7.5), and desired fractions determined by SDS-PAGE were pooled. Apo-HasAp was further purified on a Butyl Sepharose Fast Flow column equilibrated with 50 mM sodium phosphate buffer with 0.7 M ammonium sulfate (pH 7.0). Holo-HasAp and other proteins eluted within 2–3 bed volumes of 50 mM sodium phosphate containing 0.5 M ammonium sulfate. Apo-HasAp was then eluted with a linear gradient of sodium phosphate buffer (50–20 mM) containing ammonium sulfate (0.5–0 M). Fractions were analyzed again by SDS-PAGE, and the apo-HasAp was pooled, concentrated (Amicon stirred cell with Ultracel 10 kDa filter), and exchanged into 20 mM sodium phosphate buffer.
Binding affinities were determined using a BioTek Synergy H1 microplate reader in a black 96-well plate. Compounds were solvated in H2O in serial dilutions (100–0.39 μM). One micromolar solution of apo-HasAp 20 mM sodium phosphate buffer (pH 7.4, 25 °C) was titrated into the ligand of interest. Emission spectra were recorded (300–500 nm) after excitation at 280 nm. The decrease in maximum emission was plotted against the ligand concentration (accounting for dilution) and fit to one-site binding using GraphPad Prism v10.

Series [1] in a line: Experimental LogP by reverse-phase HPLC method. Format: physicochemical. As to conditions: extrapolated log kw. The text has this:
LogP was experimentally determined using previously published reverse-phase high-performance liquid chromatography method, and this workflow was adapted using instrumentation described in the previous LC-MS/MS analysis section ([Coutinho et al, 2023]). Briefly, analogs were eluted using isocratic flow with an increasing percentage of organic solvent from 55% to 90% in increments of 5%. The change in the log of the retention factor, log k, was plotted against the fraction of organic solvent. This allowed for extrapolation to the y-intercept, which is when the fraction of organic in the system is zero, or log kw. The same workflow was applied to known compounds with a published logP value to establish a relationship between logP and log kw. This ratio was used to calculate the experimental logP from the log kw of the test compounds. The in silico prediction of logP values was obtained using an online calculator by Molinspiration Cheminformatics (molinspiration.com).

The subject of the next series is Caco-2 cells. The experiment in a line: Caco-2 permeability screening. It counts as in vitro ADME. As to conditions: for Papp apical to basolateral / Papp basolateral to apical: 20 μM, 30 and 60 min, average ± SEM. The procedure:
(§1) Caco-2 cells were received from American Type Culture Collection and certified mycoplasma free. Cells were seeded on transwell plates (CoStar, growth area 0.33 cm^2/well, polycarbonate membrane, 0.33 μm pore size) between passage 20 and 27 and then analyzed between 21 and 25 days after wells were seeded to ensure enterocyte-like differentiation. Before assessing permeability, cells were washed once with Hank’s Balanced Salt Solution buffer, pH 7.4, and then incubated at 37 °C for 30 minutes. Transepithelial electrical resistance (TEER) was measured after equilibration before the experiment using an epithelial volt-ohmmeter (EVOM, World Precision Instruments), and cells were used if TEER > 250 Ω × cm^2. Cells were dosed to measure permeability from basolateral and apical sides at a concentration of 20 μM of test compound and 50 μM of Lucifer yellow. Lucifer yellow was used as a “zero permeability” marker to monitor the integrity of cell barrier. Samples were taken at 0 and 60 minutes from the donor side, and samples were taken at 30 and 60 minutes from the receiver side; media was replenished after the 30-minute sample was taken from both chambers. A calibration curve was prepared by serial dilution using the dosing solution in a 1:5 dilution. […] Samples were prepared for LC-MS/MS analysis by taking 100 μL of sample, adding 1 μM internal standard (GaSal-4 or GaSal-5), and crashing with 400 μL of methanol. Samples were centrifuged at 3000 rpm at 4 °C for 30 minutes, 200 μL of supernatant was transferred to a new plate, and 100 μL of water was added to each sample. Samples were vortexed and analyzed by LC-MS/MS as described earlier. […] To preliminarily evaluate organic cation transporter 1 (OCT1) or P-glycoprotein (P-gp)-dependent transport, transport studies were conducted with and without a 1 μM “inhibitor cocktail” alongside GaSal. […] The Papp for basolateral to apical, Papp apical to basolateral, and efflux ratio were reported for each compound. In order to calculate Papp, the concentration in the sampled time point was determined from the calibration curve and then converted to μg based on the volume of the chamber (0.2 mL for apical, 1.0 mL for basolateral). […] The calculation of Papp was determined using eq. […] Data are presented as the average ± SEM for each compound analyzed as n = 3 on 2 different days with 2 different cell line passages, for n = 6 total. GaSal is n = 3 on 3 different cell line passages since this was used as a test compound for the inhibition cocktail experiments.
Background: Caco-2 monolayers are a common model of the intestinal barrier.

A short description of series [2]: Microsomal clearance assay. It counts as in vitro ADME, rat. As to conditions: 2 μM, rat liver microsomes. The procedure: Library compounds were tested in triplicate at a concentration of 2 μM and incubated in 0.1 M potassium phosphate buffer containing 12 mM MgCl2 and 8 mM NADPH at pH 7.4 with either 0.5 mg/mL of Sprague–Dawley liver microsomes (Invitrogen). Samples were incubated for 0, 3, 7, 12, 20, and 30 minutes. At the designated time point, the incubation reaction was stopped by adding 100 μL of ACN containing 1 μM of either GaSal-4 or GaSal-5 as the internal standards. […] 7-Ethoxycoumarin (Sigma) was used as a positive control in this experiment. Intrinsic clearance (CLint) was calculated using eq. 2:(2) CLint=0.693/InVitroT1/2∗IncubationVolume/mgofmicrosomes∗45mgmicrosomes/gramofliver∗45gramsliver/kgofbodyweight
The average CLint ± SEM was determined for each compound for 2 replicates per time point.
(In general: Liver microsomes are a subcellular fraction often used to study metabolism.)

Another series can be described thus: S9 clearance assay. Format: in vitro ADME. The conditions noted are these: Sprague-Dawley, pH 7.4, S9 rat liver fraction. The procedure: Select library compounds were tested in triplicate at a concentration of 2 μM and incubated in 0.1 M potassium phosphate buffer containing 12 mM MgCl2 and 8 mM NADPH at pH 7.4 with 2.5 mg/mL of Sprague–Dawley S9 (Invitrogen). Incubations contained a final concentration of 2.5 mM UDP glucuronic acid, 0.10 mM adenosine 3’-phosphate 5’-phosphosulfate, 0.5 mM acetyl CoA, and 50 μg/mg protein alamethicin. All co-factors were from Sigma. Samples were incubated for 0, 3, 7, 12, 20, and 30 minutes. At the designated time point, the incubation reaction was stopped by adding 100 μL of ACN containing 1 μM of either GaSal-4 or GaSal-5 as the internal standard. […] A hundred microliter of supernatant was taken for LC-MS/MS analysis. 7-Ethoxycoumarin (Sigma) was used as a positive control in this experiment. Clearance was calculated according to eq. 3:(3) CLint=0.693/InVitroT1/2∗IncubationVolume/mgofS9∗165mgS9/gramofliver∗45gramsliver/kgofbodyweight
The average CLint ± SEM was determined for each compound for 3 replicates per time point.

In the next series the test system is PL proteins. As to conditions: 2012, cited from earlier work; for PL protein bound: ref Pike and Skuterud, 1982, Zhang et al.
For series [3] the following is noted: calculated B/P, cited from earlier work.
Series [4] in a line: Caco-2 permeability screening. It counts as in vitro ADME. The conditions noted are these: human, Caco-2, pH 7.4, known drug standards. The protocol: as §1

Where two headings read alike, the source gives them in different places.

Chain of HasA (G3XD33 entry or part of it): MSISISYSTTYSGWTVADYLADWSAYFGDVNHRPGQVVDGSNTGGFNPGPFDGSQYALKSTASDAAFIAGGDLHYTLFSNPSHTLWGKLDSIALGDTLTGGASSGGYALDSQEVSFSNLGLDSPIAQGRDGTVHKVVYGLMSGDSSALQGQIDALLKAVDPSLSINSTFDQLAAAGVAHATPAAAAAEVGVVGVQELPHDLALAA

One may read the Kd as a measure of binding affinity in units of concentration. As usually defined, the logP is the decadic logarithm of the partition coefficient of the neutral form, usually between octanol and water. As to `CN(C)CCOc1ccc(C=Nc2ccccc2N=Cc2ccc(OCCN(C)C)cc2O)c(O)c1.[Ga+3]` [GaSal-2], the Kd at HasA is 1.2 ± 0.3 µM. In addition, the logP in series [1] is 3.7. Moreover, in the series with Caco-2 cells, the “Papp apical to basolateral” value is on record as “Undetected” and the “Papp basolateral to apical” value was “Undetected”.
Usually half-life stands for how long it takes for the measured level to halve. A low value points to rapid decline. As to `CCOc1ccc2ccc(=O)oc2c1` [7-ethoxycoumarin, 7-Ethoxycoumarin, reference compound], in series [2], the “concentration change over 30 minutes in microsomes” value is recorded as “metabolized by the microsomes”. The molecule further had a half-life at 2 µM in the series “S9 clearance assay” (average ± SEM n = 3) of 25.2 ± 7.8 min. In addition, the CLint scaled at 2 μM in “S9 clearance assay” (average ± SEM n = 3, read-out: Predicted CLint (converted)) was 190 mL/min/kg.
With `CC(=Nc1ccccc1N=Cc1ccc(OCCN(C)C)cc1O)c1ccccc1O.[Ga+3]` [GaSal-7], on HasA, the Kd was determined as 5 ± 0.9 µM. Besides, in series [1], the logP is 3.27. In the series with Caco-2 cells, the “Papp apical to basolateral” value is reported as “Undetected” and the “Papp basolateral to apical” value is on record as “Undetected”.
With `CN(C)CCCN1c2ccccc2CCc2ccccc21` [imipramine], the PL protein bound with PL proteins is reported as greater than 90%.
Consider `[As]` [Arsenic], for which the “KRBC/PL (B/P ratio)” value in series [3] (ref (Cao et al., 2023)) is 1.46.
For `[Mn+2]` [Manganese], the “KRBC/PL (B/P ratio)” value in series [3] (ref (Smith et al., 2007)) is given as 0.2.
With `CN(C)CCC=C1c2ccccc2CCc2ccccc21` [amitriptyline], the PL protein bound with PL proteins is listed as greater than 90%.
Take `[Cr]` [Chromium]: the “KRBC/PL (B/P ratio)” value in series [3] (ref (Bonde & Christensen, 1991)) is given as 1-3.
Take `CN(Cc1cnc2nc(N)nc(N)c2n1)c1ccc(C(=O)N[C@@H](CCC(=O)O)C(=O)O)cc1` [Methotrexate, reference compound]: the efflux ratio at 60 min, 20 μM in series [4] (read-out: Efflux Ratio B to A/ A to B) was determined as 1.46. The Papp A→B at 60 min, 20 μM in series [4] (read-out: Papp Apical to Basolateral) was determined as 0.02 ± 0.001 ×10⁻⁶ cm/s. For the same molecule, the Papp B→A at 60 min, 20 μM in series [4] (read-out: Papp Basolateral to Apical) came out at 0.03 ± 0.01 ×10⁻⁶ cm/s. For the same molecule, the “Permeability Ranking” value with Caco-2 cells (Caco-2) was “Not Permeable”. In addition, in the series on PL proteins (control compounds, ref Zhang et al), the expected protein binding was 50%.

The values are drawn from PMC12264554, “Application of preclinical absorption, distribution, metabolism, elimination in vitro techniques for the characterization and compound library optimization of novel antibiotic gallium salophen” (Drug Metabolism and Disposition, 2025).
